Measured values reported in patent US20150344466A1 (SUMITOMO CHEMICAL COMPANY, LIMITED, priority 2013, published 2015).

How the values were obtained:
Type in all cases: in vivo
Musca domestica [1] = assay: Knockdown spray test on adult Musca domestica (Test Example 3); settings: topical, 0.25 h, active ingredient 2.0% w/v, 0.5 ml sprayed, within 15 minutes, read-out: knockdown rate of the test insects within 15 minutes
Method: Ten adult Musca domestica (five males and five females) were released in a polyethylene cup (bottom diameter: 10.6 cm), and the cup was covered with a 16-mesh nylon gauze. The polyethylene cup was placed on the bottom of a test chamber (bottom: 46 cm×46 cm, height: 70 cm). From a height of 30 cm above the upper surface of the polyethylene cup, 0.5 ml of the test drug solution was sprayed using a spray gun (a spraying pressure of 0.9 kg/cm^2). Immediately after spraying, the cup was taken out from the test chamber, and after 2 minutes, 5 minutes and 15 minutes, the number of knocked-down insects was counted to obtain a knockdown rate. The knockdown rate was calculated by the following equation.
(§1) Knockdown Rate (%)=(Number of Knocked-down Insects/Number of Tested Insects)×100

Blattella germanica [2] = assay: Knockdown spray test on Blattella germanica, 2.0% w/v oil formulation (Test Example 1); settings: topical, 0.25 h, active ingredient 2.0% w/v, 1.5 ml sprayed, within 15 minutes, read-out: knockdown rate of the test insects within 15 minutes
Method: Ten Blattella germanica (5 males and 5 females) were released in a test container (8.75 cm in diameter, 7.5 cm in height, and the bottom made of 16 mesh metallic wire) with the inner wall on which butter was applied, and the container was placed on the bottom of a test chamber (bottom: 46 cm×46 cm, height: 70 cm). From a height of 60 cm above the upper surface of the container, 1.5 ml of the test drug solution was sprayed using a spray gun (a spraying pressure of 0.42 kg/cm^2). Thirty seconds after spraying, the container was taken out from the test chamber, and after 2 minutes, 5 minutes and 15 minutes, the number of knocked-down insects was counted to obtain a knockdown rate. The knockdown rate was calculated by the following equation.
as §1

Culex pipiens pallens [3] = assay: Knockdown spray test on adult Culex pipiens pallens (Test Example 4); settings: topical, 0.25 h, active ingredient 0.1% w/v, 0.5 ml sprayed, within 15 minutes, read-out: knockdown rate of the test insects within 15 minutes
Procedure, shortened: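 Knockdown counts were taken 2, 5 and 15 min after spraying and expressed as percent of the 10 adults tested. For the spray, 0.5 ml of solution was applied by spray gun (0.4 kg/cm^2) from 30 cm above a gauze-covered cup in a test chamber; the cup was taken out right after spraying.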

Plutella xylostella = assay: Foliar spray test on Plutella xylostella on cabbage (Test Example 10); settings: 120 h, third instar larvae of Plutella xylostella on cabbage, 500 ppm spray 20 ml/cup, after five days, read-out: controlling value
Method: On the other hand, cabbage was planted in a polyethylene cup, and grown until the third-fourth true leaf was spread. The test spray solution was sprayed to the cabbage at a ratio of 20 ml/cup. After the drug solution sprayed on the cabbage was dried, 10 third instar larvae of Plutella xylostella were allowed to parasitize the cabbage. After five days, the number of Plutella xylostella was investigated, and the controlling value was calculated according to the following standard. Controlling value (%)={1−(Cb×Tai)/(Cai×Tb)}×100 In the equation, the symbols represent as follows. Cb: the number of insects in a non-treated section before treatment Cai: the number of insects in a non-treated section on observation Tb: the number of insects in a treated section before treatment Tai: the number of insects in a treated section on observation

Culex pipiens pallens [4] = assay: Larvicidal test on Culex pipiens pallens, eight days (Test Example 7); settings: 192 h; last-instar larvae of Culex pipiens pallens; 3.5 ppm in water; eight days later; read-out: death rate
Method: 20 last-instar larvae of Culex pipiens pallens were released into a liquid to which 0.7 ml of the above test drug solution was added to 100 ml of ion-exchanged water (a concentration of the active ingredient of 3.5 ppm). Eight days later, the life and death of the Culex pipiens pallens was examined, and the death rate was calculated. The death rate was calculated by the following equation.
Death rate (%)=(Number of dead insects/Number of tested insects)×100

Musca domestica [5] = assay: Filter paper/sucrose bait death rate test on Musca domestica (Test Example 5); settings: female imagoes of Musca domestica, 0.7 ml on filter paper, after 24 hours
Procedure, shortened: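 Ten female imagoes were confined in a sealed cup over a filter paper treated with 0.7 ml of test solution and 30 mg sucrose bait. Mortality was scored at 24 h and expressed as percent of tested insects killed.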

Blattella germanica [6] = assay: Knockdown spray test on Blattella germanica, 0.1% w/v oil formulation (Test Example 2); settings: topical, 0.25 h, active ingredient 0.1% w/v, 1.5 ml sprayed, within 15 minutes, read-out: knockdown rate of the test insects within 15 minutes
Procedure, shortened: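 Ten German cockroaches (5 males, 5 females) in a mesh-bottomed, butter-walled container were sprayed with 1.5 ml test solution from 60 cm at 0.42 kg/cm^2 inside a chamber.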

| SMILES | pest or weed control at 2 % strength (Musca domestica [1]) | pest or weed control at 2 % strength (Blattella germanica [2]) | pest or weed control at 0.1 % strength (Culex pipiens pallens [3]) | pest or weed control at 500 ppm (Plutella xylostella) | pest or weed control at 3.5 ppm (Culex pipiens pallens [4]) | pest or weed control at 500 ppm (Musca domestica [5]) | pest or weed control at 0.1 % strength (Blattella germanica [6]) |
| --- | --- | --- | --- | --- | --- | --- | --- |
| O=C(NCC1CCOC1)c1cc(COCc2ccccc2)on1 (stereo not drawn) [(13), N-(tetrahydrofuran-3-ylmethyl)-5-benzyloxymethylisoxazole-3-carboxamide] | ≥ 80% | ≥ 80% | ≥ 80% | ≥ 90% |  |  |  |
| O=C(NCC1CCOCC1)c1cc(COCc2ccccc2)on1 [(15), N-(tetrahydropyran-4-ylmethyl)-5-benzyloxymethylisoxazole-3-carboxamide] | ≥ 80% | ≥ 80% | ≥ 80% | ≥ 90% |  |  |  |
| O=C(NCC1CCOCC1)c1cc(COCc2ccc3ccccc3c2)on1 [(21), N-(tetrahydropyran-4-ylmethyl)-5-(2-naphthylmethoxymethyl)isoxazole-3-carboxamide] | ≥ 80% | ≥ 80% | ≥ 80% |  | ≥ 90% |  |  |
| O=C(NCC1CCOC1)c1cc(CCCc2ccccc2)on1 (stereo not drawn) [(22), N-(tetrahydrofuran-3-ylmethyl)-5-(3-phenylpropyl)isoxazole-3-carboxamide] | ≥ 80% | ≥ 80% | ≥ 80% |  |  | ≥ 90% |  |
| O=C(NCC1CCOC1)c1cc(Cc2ccccc2)on1 (stereo not drawn) [(26), N-(tetrahydrofuran-3-ylmethyl)-5-benzylisoxazole-3-carboxamide] | ≥ 80% | ≥ 80% | ≥ 80% |  |  | ≥ 90% |  |
| O=C(NCC1CCOC1)c1cc(COCc2ccc(Cl)cc2)on1 (stereo not drawn) [(70), N-(tetrahydrofuran-3-ylmethyl)-5-(4-chlorobenzyloxymethyl)isoxazole-3-carboxamide] |  |  | ≥ 80% | ≥ 90% | ≥ 90% |  | ≥ 80% |
| O=C(NCC1CCOC1)c1cc(COCc2cccc(OC(F)(F)F)c2)on1 (stereo not drawn) [(78), N-(tetrahydrofuran-3-ylmethyl)-5-(3-trifluoromethoxybenzyloxymethyl)isoxazole-3-carboxamide] |  |  | ≥ 80% |  | ≥ 90% |  | ≥ 80% |
| O=C(NCC1CCOC1)c1cc(COCc2ccc(Br)cc2)on1 (stereo not drawn) [(91), N-(tetrahydrofuran-3-ylmethyl)-5-(4-bromobenzyloxymethyl)isoxazole-3-carboxamide] |  |  | ≥ 80% | ≥ 90% | ≥ 90% |  | ≥ 80% |
| O=C(NCC1CCOCC1)c1cc(COCc2ccc(SC(F)(F)F)cc2)on1 [(96), N-(tetrahydropyran-4-ylmethyl)-5-(4-trifluoromethylthiobenzyloxymethyl)isoxazole-3-carboxamide] |  |  | ≥ 80% |  | ≥ 90% |  |  |
| O=C(NCC1CCOC1)c1cc(COCC2CCc3ccccc3C2)on1 (stereo not drawn) [(118), N-(tetrahydrofuran-3-ylmethyl)-5-(1,2,3,4-tetrahydronaphthalen-2-ylmethoxymethyl)isoxazole-3-carboxamide] | ≥ 80% | ≥ 80% | ≥ 80% | ≥ 90% |  |  |  |
| O=C(NCC1CCOC1)c1cc(CCCOCc2ccccc2)on1 (stereo not drawn) [(139), N-(tetrahydrofuran-3-ylmethyl)-5-(3-benzyloxypropyl)isoxazole-3-carboxamide] | ≥ 80% | ≥ 80% | ≥ 80% |  |  |  |  |
| O=C(NCC1CCOC1)c1cc(CCCCOCc2ccccc2)on1 (stereo not drawn) [(140), N-(tetrahydrofuran-3-ylmethyl)-5-(4-benzyloxybutyl)isoxazole-3-carboxamide] | ≥ 80% | ≥ 80% | ≥ 80% |  |  |  |  |
| O=C(NCC1CCOC1)c1cc(CCCCCOCc2ccccc2)on1 (stereo not drawn) [(141), N-(tetrahydrofuran-3-ylmethyl)-5-(5-benzyloxypentyl)isoxazole-3-carboxamide] | ≥ 80% | ≥ 80% | ≥ 80% |  |  |  |  |
| O=C(NCC1CCOC1)c1cc(CCCCCCOCc2ccccc2)on1 (stereo not drawn) [(143), N-(tetrahydrofuran-3-ylmethyl)-5-(6-benzyloxyhexyl)isoxazole-3-carboxamide] | ≥ 80% | ≥ 80% | ≥ 80% |  |  |  |  |
| O=C(NCC1CCOC1)c1cc(CCCCOc2ccccc2)on1 (stereo not drawn) [(146), N-(tetrahydrofuran-3-ylmethyl)-5-(4-phenoxybutyl)isoxazole-3-carboxamide] | ≥ 80% | ≥ 80% | ≥ 80% |  | ≥ 90% |  |  |
| O=C(NCC1CCOC1)c1cc(Cc2cccc(C(F)(F)F)c2)on1 (stereo not drawn) [(158), N-(tetrahydrofuran-3-ylmethyl)-5-(3-trifluoromethylbenzyl)isoxazole-3-carboxamide] | ≥ 80% | ≥ 80% | ≥ 80% |  |  |  |  |
| COC(=O)c1c(C(=O)NCC2CCOC2)noc1COCc1ccccc1 (stereo not drawn) [(167), N-(tetrahydrofuran-3-ylmethyl)-(5-benzyloxymethyl-4-methoxycarbonyl)isoxazole-3-carboxamide] |  |  |  |  | ≥ 90% |  |  |
| O=C(NCC1CCOCC1)c1cc(COc2cccc(C(F)(F)F)c2)on1 [(199), N-(tetrahydropyran-4-ylmethyl)-5-(3-trifluoromethylphenoxymethyl)isoxazole-3-carboxamide] |  |  | ≥ 80% |  | ≥ 90% |  |  |
| O=C(NCC1CCOC1)c1cc(COCC#Cc2ccccc2)on1 (stereo not drawn) [(240), N-(tetrahydrofuran-3-ylmethyl)-5-(3-phenyl-2-propionyl)oxymethylisoxazole-3-carboxamide] | ≥ 80% | ≥ 80% | ≥ 80% |  |  |  | ≥ 80% |
| O=C(NCC1CCOC1)c1cc(CCCc2ccc(Cl)cc2)on1 (stereo not drawn) [(252), N-(tetrahydrofuran-3-ylmethyl)-5-[3-(4-chlorophenyl]propyl) isoxazole-3-carboxamide] |  |  | ≥ 80% |  | ≥ 90% | ≥ 90% | ≥ 80% |
| Cc1c(C(=O)NCC2CCOC2)noc1CCCc1ccccc1F (stereo not drawn) [(282), N-(tetrahydrofuran-3-ylmethyl)-4-methyl-5-[3-(2-fluorophenyl)propyl]isoxazole-3-carboxamide] |  |  | ≥ 80% |  | ≥ 90% | ≥ 90% | ≥ 80% |
| CC1(CNC(=O)c2cc(COCc3ccccc3)on2)COC1 [(334), N-(3-methyloxetan-3-ylmethyl)-5-benzyloxymethylisoxazole-3-carboxamide] | ≥ 80% | ≥ 80% | ≥ 80% |  |  |  | ≥ 80% |
